These results are taken from BindingDB's records for doi:10.1016/j.bmcl.2009.10.011 (AMRI, 2009).

For the assay, the target named is Cyclin-A1/Cyclin-A2/Cyclin-dependent kinase 2 (Homo sapiens, UniProt P24941). Description: Inhibition of recombinant Cdk2/cyclinA.

A word on the IC50: it is the midpoint of a concentration-inhibition curve. On to `Cc1csc(-c2ccc(CNc3nc(N[C@H]4CC[C@H](N)CC4)nc4c3ncn4C(C)C)s2)n1`, for which the IC50 was found to be 0.1 nM. For `CC(C)n1cnc2c(NCc3ccc(-c4cccs4)nc3)nc(N[C@H]3CC[C@H](N)CC3)nc21`, the IC50 came out at 0.9 nM.
